Measurements from ChEMBL document CHEMBL5316293, “Novel Small-Molecule PD-L1 Inhibitor Induces PD-L1 Internalization and Optimizes the Immune Microenvironment” (J Med Chem, 2023).

Molecular target: Programmed cell death protein 1/Programmed cell death 1 ligand 1 (Homo sapiens, UniProt Q9NZQ7)
Test: Inhibition of europium-labeled PD-1/biotinylated PD-L1 interaction (unknown origin) preincubated for 15 mins with PD-L1 followed by PD-1 addition and measured after 90 mins by TR-FRET assay
Assay type: protein-complex assay
Conditions: not given

Chain of Programmed cell death protein 1/Programmed cell death 1 ligand 1 (Q15116 whole entry): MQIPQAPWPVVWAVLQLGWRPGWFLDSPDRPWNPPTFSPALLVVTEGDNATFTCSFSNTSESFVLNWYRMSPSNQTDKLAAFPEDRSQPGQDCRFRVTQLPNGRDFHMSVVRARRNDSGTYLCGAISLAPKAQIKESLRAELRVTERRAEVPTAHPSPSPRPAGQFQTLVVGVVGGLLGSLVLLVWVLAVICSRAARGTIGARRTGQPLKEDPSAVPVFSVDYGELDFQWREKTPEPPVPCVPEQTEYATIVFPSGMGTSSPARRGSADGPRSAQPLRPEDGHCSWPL
Chain of Programmed cell death protein 1/Programmed cell death 1 ligand 1 (Q9NZQ7 whole entry): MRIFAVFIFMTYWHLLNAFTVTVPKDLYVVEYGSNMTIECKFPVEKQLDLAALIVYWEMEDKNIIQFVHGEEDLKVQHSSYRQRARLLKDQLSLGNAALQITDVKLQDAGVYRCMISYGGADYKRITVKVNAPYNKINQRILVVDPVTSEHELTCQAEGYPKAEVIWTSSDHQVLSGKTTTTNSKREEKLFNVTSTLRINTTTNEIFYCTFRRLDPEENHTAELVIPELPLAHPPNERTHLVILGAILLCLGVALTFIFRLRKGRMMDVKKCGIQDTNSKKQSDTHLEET

Compound | IC50
N#Cc1c(-c2ccccc2)cccc1N1C(=O)c2ccc(C(=O)NCCO)cc2C1=O | 3670 nM
Cc1c(-c2ccccc2)cccc1N1C(=O)c2ccc(CNCCO)cc2C1=O | 342 nM
COc1cc2c(cc1CN[C@@H](C)C(=O)O)C(=O)N(c1cccc(-c3ccccc3)c1C)C2=O | 16.9 nM
N#Cc1cccc(COc2ccc3c(c2)C(=O)N(c2cccc(-c4ccccc4)c2C#N)C3=O)c1 | 395 nM
Cc1c(-c2ccccc2)cccc1N1C(=O)c2ccc(CN3CCOCC3)cc2C1=O | 2520 nM
Cc1c(-c2ccccc2)cccc1N1C(=O)c2ccc(OCc3ccccc3)cc2C1=O | > 10000 nM
COc1cc2c(cc1CN1CCC[C@H]1C(=O)O)C(=O)N(c1cccc(-c3ccccc3)c1C)C2=O | 139 nM
Cc1c(-c2ccccc2)cccc1N1C(=O)c2ccc(CN(C)CCO)cc2C1=O | 917 nM
COc1cc2c(cc1CNCCO)C(=O)N(c1cccc(-c3ccccc3)c1C)C2=O | 15.6 nM
Cc1c(-c2ccc3c(c2)OCCO3)cccc1N1C(=O)c2ccc(C(=O)NCCO)cc2C1=O | 745 nM
Cc1c(-c2ccccc2)cccc1N1C(=O)c2ccc(CN3CCC[C@H]3CO)cc2C1=O | 2210 nM
N#Cc1c(-c2ccc3c(c2)OCCO3)cccc1N1C(=O)c2ccc(C(=O)NCCO)cc2C1=O | 1170 nM
Cc1c(CN2C(=O)c3ccc(CNCCO)cc3C2=O)cccc1-c1ccccc1 | 3840 nM
Cc1c(-c2ccccc2)cccc1N1C(=O)c2ccc(CN3CCCC[C@H]3C(=O)O)cc2C1=O | 2110 nM
CC(=O)COc1ccc2c(c1)C(=O)N(c1cccc(-c3ccccc3)c1C)C2=O | 1060 nM
Cc1c(-c2ccccc2)cccc1N1C(=O)c2ccc(CNCCNS(C)(=O)=O)cc2C1=O | 968 nM
Cc1c(-c2ccccc2)cccc1N1C(=O)c2ccc(CN3CCC[C@H]3C(=O)O)cc2C1=O | 1420 nM
Cc1c(-c2ccccc2)cccc1N1C(=O)c2ccc(C(=O)NCCO)cc2C1=O | 1890 nM
Cc1c(-c2ccccc2)cccc1N1C(=O)c2ccc(C(=O)N3CCN(C(C)C)CC3)cc2C1=O | 5130 nM
Cc1c(-c2ccccc2)cccc1N1C(=O)c2ccc(OCc3cccc(C#N)c3)cc2C1=O | > 10000 nM

Compound | IC50
Cc1c(-c2ccccc2)cccc1N1C(=O)c2ccc(CNC3CCOCC3)cc2C1=O | 683 nM
CC(=O)NCCNCc1ccc2c(c1)C(=O)N(Cc1cccc(-c3ccccc3)c1C)C2=O | 5410 nM
Cc1c(-c2ccccc2)cccc1N1C(=O)c2ccc(CN3CCC[C@H]3C(N)=O)cc2C1=O | 2760 nM
Cc1c(-c2ccccc2)cccc1N1C(=O)c2cc(Br)c(CN3CCCC[C@H]3C(=O)O)cc2C1=O | > 10000 nM
Cc1c(-c2ccccc2)cccc1N1C(=O)c2ccc(OCc3ccc(C(C)C)cc3)cc2C1=O | > 10000 nM
Cc1c(-c2ccccc2)cccc1N1C(=O)c2ccc(CNCCN)cc2C1=O | 912 nM
Cc1c(-c2ccccc2)cccc1N1C(=O)c2cc(Br)c(CN3CCOCC3)cc2C1=O | > 10000 nM
Cc1c(CN2C(=O)c3ccc(CN4CCCC[C@H]4C(=O)O)cc3C2=O)cccc1-c1ccccc1 | 4630 nM
CCOC(=O)[C@H](CO)NCc1ccc2c(c1)C(=O)N(c1cccc(-c3ccccc3)c1C)C2=O | 2380 nM
N#Cc1ccc(COc2ccc3c(c2)C(=O)N(c2cccc(-c4ccccc4)c2C#N)C3=O)cc1 | > 10000 nM
Cc1c(-c2ccccc2)cccc1N1C(=O)c2ccc(CN[C@@H](CO)C(=O)O)cc2C1=O | 156 nM
COc1cc2c(cc1CNCC(=O)O)C(=O)N(c1cccc(-c3ccccc3)c1C)C2=O | 35.9 nM
COc1cc2c(cc1CN[C@@H](CO)C(=O)OC(C)(C)C)C(=O)N(c1cccc(-c3ccccc3)c1C)C2=O | 296 nM
Cc1c(-c2ccccc2)cccc1N1C(=O)c2ccc(C(=O)N3CCOCC3)cc2C1=O | 1950 nM
N#Cc1c(-c2ccccc2)cccc1N1C(=O)c2ccc(C(=O)N3CCOCC3)cc2C1=O | 6690 nM
Cc1c(-c2ccccc2)cccc1N1C(=O)c2ccc(CNCCNC(=O)OC(C)(C)C)cc2C1=O | 2400 nM
COc1cc2c(cc1CNCCNC(C)=O)C(=O)N(c1cccc(-c3ccccc3)c1C)C2=O | 46.2 nM
CC(=O)COc1ccc2c(c1)C(=O)N(c1cccc(-c3ccccc3)c1C#N)C2=O | 249 nM
CC(=O)NCCNCc1ccc2c(c1)C(=O)N(c1cccc(-c3ccccc3)c1C)C2=O | 590 nM

Tested on: not listed separately
Test: Antitumor activity against humanized mouse LLC-hPD-L1 cells implanted in hPD-1 knockin C57BL/6 mouse assessed as tumor growth inhibition at 10 mg/kg, ip administered for 12 days starting from day 7 post tumor implantation and measured every 2 days relative to control
Assay type: functional
Conditions: LLC-hPD-L1, 288 h, time 12 day, read-out: TGI

Compound | inhibition in vivo at 10 mg/kg
COc1nc(OCc2cccc(-c3ccccc3)c2C)ccc1CNCCNC(C)=O | 39.8%
